# Target: P. falciparum apicoplast DNA polymerase (Pf-apPOL) (Plasmodium falciparum, UniProt Q8ILY1)
# Assay: Fluorescence-based high-throughput DNA polymerase assay (molecular beacon), primary screen and dose-response;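 as to % inhibition ApPOL 90': test concentration in µM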;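 as to % inhibition apPOL 180': test concentration in µM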
# Format: biochemical
# How it was run: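 Single-point screening used 10 µM compound with 20 nM polymerase, 20 nM hairpin substrate and 6 µM dNTPs for 90 min at 25 °C. Confirmatory titrations (2.5–80 µM) followed fluorescence at three times, and IC50 was derived from a fit including a cooperativity term n.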
# [1] = primary screen value of the 186 hits; unit not given; 90 min, 10 µM
# [2] = supplemental file 2, sheet IC50 nontoxic compounds; Pf-apPOL
# Sequence of P. falciparum apicoplast DNA polymerase (Pf-apPOL) (Q8ILY1 entry or part of it): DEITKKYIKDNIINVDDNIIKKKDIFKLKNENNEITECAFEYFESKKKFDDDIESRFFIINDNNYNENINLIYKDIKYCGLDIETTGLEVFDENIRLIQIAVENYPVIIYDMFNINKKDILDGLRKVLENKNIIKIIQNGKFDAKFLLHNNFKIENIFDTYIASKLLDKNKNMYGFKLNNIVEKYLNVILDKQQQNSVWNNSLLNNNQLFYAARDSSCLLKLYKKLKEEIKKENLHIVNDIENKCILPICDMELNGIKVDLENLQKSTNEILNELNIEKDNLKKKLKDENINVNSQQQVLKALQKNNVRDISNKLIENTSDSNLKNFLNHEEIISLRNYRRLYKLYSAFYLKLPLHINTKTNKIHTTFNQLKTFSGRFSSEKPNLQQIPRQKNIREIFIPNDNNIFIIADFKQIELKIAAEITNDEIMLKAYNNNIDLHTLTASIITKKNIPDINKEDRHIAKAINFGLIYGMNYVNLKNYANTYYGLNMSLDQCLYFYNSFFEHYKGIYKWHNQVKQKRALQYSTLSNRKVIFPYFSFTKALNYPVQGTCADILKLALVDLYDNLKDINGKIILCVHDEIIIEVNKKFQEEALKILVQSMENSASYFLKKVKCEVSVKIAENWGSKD
compound,measurement,setting,value
COc1ccc(-c2cc(=O)c3cc(O)ccc3o2)cc1OC [KU0193655],% inhibition Apo pol 10',DRC-1; 10'; concentration 2.5,-0.1967%
same,% inhibition Apo pol 10',DRC-1; 10'; concentration 5,8.174%
same,% inhibition Apo pol 10',DRC-1; 10'; concentration 10,18.1231%
same,% inhibition Apo pol 10',DRC-1; 10'; concentration 20,34.6118%
same,% inhibition Apo pol 10',DRC-1; 10'; concentration 40,62.4482%
same,% inhibition Apo pol 10',DRC-1; 10'; concentration 80,84.2826%
same,% inhibition Apol 90',DRC-1; 90'; concentration 2.5,2.413%
same,% inhibition Apol 90',DRC-1; 90'; concentration 5,7.049%
same,% inhibition Apol 90',DRC-1; 90'; concentration 10,17.1119%
same,% inhibition Apol 90',DRC-1; 90'; concentration 20,31.7706%
same,% inhibition Apol 90',DRC-1; 90'; concentration 40,60.6022%
same,% inhibition Apol 90',DRC-1; 90'; concentration 80,83.5295%
same,% inhibition apPOL 180',DRC-1; 180'; concentration 2.5,2.832%
same,% inhibition apPOL 180',DRC-1; 180'; concentration 5,6.576%
same,% inhibition apPOL 180',DRC-1; 180'; concentration 10,16.442%
same,% inhibition apPOL 180',DRC-1; 180'; concentration 20,31.1115%
same,% inhibition apPOL 180',DRC-1; 180'; concentration 40,58.5037%
same,% inhibition apPOL 180',DRC-1; 180'; concentration 80,84.0263%
same,% inhibition Apo pol 5',DRC-2; 5'; concentration 2.5,-0.529%
same,% inhibition Apo pol 5',DRC-2; 5'; concentration 5,0.718%
same,% inhibition Apo pol 5',DRC-2; 5'; concentration 10,15%
same,% inhibition Apo pol 5',DRC-2; 5'; concentration 20,23%
same,% inhibition Apo pol 5',DRC-2; 5'; concentration 40,39%
same,% inhibition Apo pol 5',DRC-2; 5'; concentration 80,47%
same,% inhibition Apol 40',DRC-2; 40'; concentration 2.5,1.36%
same,% inhibition Apol 40',DRC-2; 40'; concentration 5,3.64%
same,% inhibition Apol 40',DRC-2; 40'; concentration 10,19%
same,% inhibition Apol 40',DRC-2; 40'; concentration 20,29%
same,% inhibition Apol 40',DRC-2; 40'; concentration 40,49%
same,% inhibition Apol 40',DRC-2; 40'; concentration 80,61%
same,% inhibition ApPOL 90',DRC-2; 90'; concentration 2.5,0.778%
same,% inhibition ApPOL 90',DRC-2; 90'; concentration 5,6%
same,% inhibition ApPOL 90',DRC-2; 90'; concentration 10,20%
same,% inhibition ApPOL 90',DRC-2; 90'; concentration 20,32%
same,% inhibition ApPOL 90',DRC-2; 90'; concentration 40,53%
same,% inhibition ApPOL 90',DRC-2; 90'; concentration 80,65%
same,% inhibition apPOL 180',DRC-2; 180'; concentration 2.5,-1.88%
same,% inhibition apPOL 180',DRC-2; 180'; concentration 5,5%
same,% inhibition apPOL 180',DRC-2; 180'; concentration 10,21%
same,% inhibition apPOL 180',DRC-2; 180'; concentration 20,34%
same,% inhibition apPOL 180',DRC-2; 180'; concentration 40,56%
same,% inhibition apPOL 180',DRC-2; 180'; concentration 80,68%
same,DNA Pol,"primary screen value by plate and well; 90 min, 10 µM",27
same,DNA Pol,[1],27
COC(=O)c1sc(-c2ccc(C(C)(C)C)cc2)cc1NC(=O)CCC(=O)O [Molecule 87],IC50,[2],8.86 µM
NS(=O)(=O)c1ccc(NC(=O)c2ccc(N3C(=O)CCC3=O)cc2)cc1 [KU0025331],% inhibition Apo pol 10',DRC-1; 10'; concentration 2.5,3.929%
same,% inhibition Apo pol 10',DRC-1; 10'; concentration 5,17.6449%
same,% inhibition Apo pol 10',DRC-1; 10'; concentration 10,35.7836%
same,% inhibition Apo pol 10',DRC-1; 10'; concentration 20,51.7902%
same,% inhibition Apo pol 10',DRC-1; 10'; concentration 40,82.955%
same,% inhibition Apo pol 10',DRC-1; 10'; concentration 80,86.1018%
same,% inhibition Apol 90',DRC-1; 90'; concentration 2.5,-2.372%
same,% inhibition Apol 90',DRC-1; 90'; concentration 5,7.062%
same,% inhibition Apol 90',DRC-1; 90'; concentration 10,19.6888%
same,% inhibition Apol 90',DRC-1; 90'; concentration 20,33.4355%
same,% inhibition Apol 90',DRC-1; 90'; concentration 40,69.7509%
same,% inhibition Apol 90',DRC-1; 90'; concentration 80,83.6402%
same,% inhibition apPOL 180',DRC-1; 180'; concentration 2.5,-7.42%
same,% inhibition apPOL 180',DRC-1; 180'; concentration 5,-1.0806%
same,% inhibition apPOL 180',DRC-1; 180'; concentration 10,6.657%
same,% inhibition apPOL 180',DRC-1; 180'; concentration 20,15.4098%
same,% inhibition apPOL 180',DRC-1; 180'; concentration 40,52.8887%
same,% inhibition apPOL 180',DRC-1; 180'; concentration 80,79.9389%
same,% inhibition Apo pol 5',"DRC-2, 5', concentration 2.5 (unit not given)",8%
same,% inhibition Apol 40',"DRC-2, 40', concentration 2.5 (unit not given)",8%
same,% inhibition Apol 40',"DRC-2, 40', concentration 40 (unit not given)",67%
same,% inhibition ApPOL 90',"DRC-2, 90', concentration 80 (unit not given)",67%
same,% inhibition Apo pol 5',DRC-2; 5'; concentration 2.5,8%
same,% inhibition Apo pol 5',DRC-2; 5'; concentration 5,15%
same,% inhibition Apo pol 5',DRC-2; 5'; concentration 10,23%
same,% inhibition Apo pol 5',DRC-2; 5'; concentration 20,40%
same,% inhibition Apo pol 5',DRC-2; 5'; concentration 40,46%
same,% inhibition Apo pol 5',DRC-2; 5'; concentration 80,37%
same,% inhibition Apol 40',DRC-2; 40'; concentration 2.5,8%
same,% inhibition Apol 40',DRC-2; 40'; concentration 5,13%
same,% inhibition Apol 40',DRC-2; 40'; concentration 10,21%
same,% inhibition Apol 40',DRC-2; 40'; concentration 20,47%
same,% inhibition Apol 40',DRC-2; 40'; concentration 40,67%
same,% inhibition Apol 40',DRC-2; 40'; concentration 80,64%
same,% inhibition ApPOL 90',DRC-2; 90'; concentration 2.5,5.53%
same,% inhibition ApPOL 90',DRC-2; 90'; concentration 5,9%
same,% inhibition ApPOL 90',DRC-2; 90'; concentration 10,17%
same,% inhibition ApPOL 90',DRC-2; 90'; concentration 20,42%
same,% inhibition ApPOL 90',DRC-2; 90'; concentration 40,68%
same,% inhibition ApPOL 90',DRC-2; 90'; concentration 80,67%
same,% inhibition apPOL 180',DRC-2; 180'; concentration 2.5,-4.26%
same,% inhibition apPOL 180',DRC-2; 180'; concentration 5,-1.74%
same,% inhibition apPOL 180',DRC-2; 180'; concentration 10,4.49%
same,% inhibition apPOL 180',DRC-2; 180'; concentration 20,26%
same,% inhibition apPOL 180',DRC-2; 180'; concentration 40,65%
same,% inhibition apPOL 180',DRC-2; 180'; concentration 80,72%
same,DNA Pol,[1],32
same,DNA Pol,"primary screen value, head ""DNA Pol"", unit not given; 90 min, 10 µM",32
CC(C)CCNC(=O)c1cnn2c(O)cc(CSc3ccc(Cl)cc3)nc12 [Molecule 101],IC50,[2],9.74 µM
CSC(C)C(=O)C=CN(C)C (stereo not drawn) [Molecule 71],IC50,[2],26.9 µM
"O=c1cc(-c2ccccc2)oc2c(O)c(O)ccc12 [Molecule 84, Oc1ccc2c(c1O)oc(cc2=O)c1ccccc1]",DNA Pol,"186 hits, value of the hit list (primary screen); unit not given; 90 min, 10 µM",55
same,% inhibition Apo pol 10',DRC-1; 10'; concentration 2.5,14.1303%
same,% inhibition Apo pol 10',DRC-1; 10'; concentration 5,19.657%
same,% inhibition Apo pol 10',DRC-1; 10'; concentration 10,33.8432%
same,% inhibition Apo pol 10',DRC-1; 10'; concentration 20,42.9919%
same,% inhibition Apo pol 10',DRC-1; 10'; concentration 40,51.8731%
same,% inhibition Apo pol 10',DRC-1; 10'; concentration 80,57.9256%
same,% inhibition Apol 90',DRC-1; 90'; concentration 2.5,6.487%
same,% inhibition Apol 90',DRC-1; 90'; concentration 5,3.595%
same,% inhibition Apol 90',DRC-1; 90'; concentration 10,11.2996%
same,% inhibition Apol 90',DRC-1; 90'; concentration 20,16.5407%
same,% inhibition Apol 90',DRC-1; 90'; concentration 40,24.8113%
same,% inhibition Apol 90',DRC-1; 90'; concentration 80,29.7853%
same,% inhibition apPOL 180',DRC-1; 180'; concentration 2.5,1.7844%
same,% inhibition apPOL 180',DRC-1; 180'; concentration 5,-2.772%
same,% inhibition apPOL 180',DRC-1; 180'; concentration 10,4.166%
same,% inhibition apPOL 180',DRC-1; 180'; concentration 20,7.699%
same,% inhibition apPOL 180',DRC-1; 180'; concentration 40,14.2771%
same,% inhibition apPOL 180',DRC-1; 180'; concentration 80,18.1576%
same,% inhibition Apo pol 5',"DRC-2, 5', concentration 2.5",12%
same,% inhibition Apo pol 5',"DRC-2, 5', concentration 5",18%
same,% inhibition Apo pol 5',"DRC-2, 5', concentration 10",26%
same,% inhibition Apo pol 5',"DRC-2, 5', concentration 20",32%
same,% inhibition Apo pol 5',"DRC-2, 5', concentration 40",41%
same,% inhibition Apo pol 5',"DRC-2, 5', concentration 80",42%
same,% inhibition Apol 40',"DRC-2, 40', concentration 2.5",10%
same,% inhibition Apol 40',"DRC-2, 40', concentration 5",13%
same,% inhibition Apol 40',"DRC-2, 40', concentration 10",21%
same,% inhibition Apol 40',"DRC-2, 40', concentration 20",23%
same,% inhibition Apol 40',"DRC-2, 40', concentration 40",32%
same,% inhibition Apol 40',"DRC-2, 40', concentration 80",36%
same,% inhibition ApPOL 90',"DRC-2, 90', concentration 2.5",8%
same,% inhibition ApPOL 90',"DRC-2, 90', concentration 5",10%
same,% inhibition ApPOL 90',"DRC-2, 90', concentration 10",16%
same,% inhibition ApPOL 90',"DRC-2, 90', concentration 20",17%
same,% inhibition ApPOL 90',"DRC-2, 90', concentration 40",26%
same,% inhibition ApPOL 90',"DRC-2, 90', concentration 80",32%
same,% inhibition apPOL 180',"DRC-2, 180', concentration 2.5",1.74%
same,% inhibition apPOL 180',"DRC-2, 180', concentration 5",3.63%
same,% inhibition apPOL 180',"DRC-2, 180', concentration 10",7.41%
same,% inhibition apPOL 180',"DRC-2, 180', concentration 20",6%
same,% inhibition apPOL 180',"DRC-2, 180', concentration 40",16%
same,% inhibition apPOL 180',"DRC-2, 180', concentration 80",23%
same,% inhibition Apo pol 5',DRC-2; 5'; concentration 10,26%
same,% inhibition Apo pol 5',DRC-2; 5'; concentration 20,32%
same,% inhibition Apol 40',DRC-2; 40'; concentration 2.5,10%
same,% inhibition Apol 40',DRC-2; 40'; concentration 20,23%
same,% inhibition Apol 40',DRC-2; 40'; concentration 40,32%
same,% inhibition ApPOL 90',DRC-2; 90'; concentration 5,10%
same,% inhibition ApPOL 90',DRC-2; 90'; concentration 10,16%
same,% inhibition ApPOL 90',DRC-2; 90'; concentration 40,26%
same,% inhibition ApPOL 90',DRC-2; 90'; concentration 80,32%
same,% inhibition apPOL 180',DRC-2; 180'; concentration 40,16%
same,% inhibition apPOL 180',DRC-2; 180'; concentration 80,23%
same,DNA Pol,"primary screen value, 'DNA Pol' only; 90 min, 10 µM",55

# From paper PMC9090415, “Discovery of small molecule inhibitors of Plasmodium falciparum apicoplast DNA polymerase” (Journal of Enzyme Inhibition and Medicinal Chemistry, 2022)
